# Experimental data taken from ChEMBL document CHEMBL1129966, “Substituted indole-2-carboxylates as in vivo potent antagonists acting as the strychnine-insensitive glycine binding site” (J Med Chem, 1997).
# Assays:
# [1] = target: Glutamate receptor ionotropic, NMDA 1 (Rattus norvegicus, UniProt P35439); assay: Inhibition of [3H]glycine to glycine binding site, associated with the N-methyl-D-aspartate glutamate receptor 1 in crude synaptic membranes prepared from adult rat cerebral cortex.; format: cell membranes
# Mus musculus [2] = assay: Effective dose to inhibit convulsions induced by NMDA in mice, when administered intravenous route.; format: functional
# Mus musculus [3] = assay: Effective dose to inhibit convulsions induced by NMDA in mice, when administered peroral route.; format: functional; details: po
# [4] = target: Glutamate receptor ionotropic, NMDA 1 (Rattus norvegicus) (UniProt P35439); assay: Antagonistic activity by using [3H]TCP radioligand (non competitive inhibition) at strychnine-insensitive N-methyl-D-aspartate glutamate receptor 1
SMILES,Ki [1] [nM],other results
O=C(/C=C/c1c(C(=O)O)[nH]c2cc(Cl)cc(Cl)c12)Nc1cccc(O)c1,3.98,–
O=C(/C=C/c1c(C(=O)O)[nH]c2cc(Cl)cc(Cl)c12)Nc1ccccc1[N+](=O)[O-],25.1,–
O=C(Nc1ccccc1)N[C@H]1C[C@H](C(=O)O)Nc2cc(Cl)cc(Cl)c21,6.31,ED50 (Mus musculus [2]): 0.21 mg/kg
CCN(CC)c1ccc(NC(=O)/C=C/c2c(C(=O)O)[nH]c3cc(Cl)cc(Cl)c23)cc1,100,–
COc1ccc(NC(=O)/C=C/c2c(C(=O)O)[nH]c3cc(Cl)cc(Cl)c23)c(C)c1,20,–
O=C(O)c1cc2c(Cl)cc(Cl)cc2[nH]1,2000,–
O=C(/C=C/c1c(C(=O)O)[nH]c2cc(Cl)cc(Cl)c12)Nc1ccc(F)cc1[N+](=O)[O-],31.6,–
CC(C)c1ccccc1NC(=O)/C=C/c1c(C(=O)O)[nH]c2cc(Cl)cc(Cl)c12,50.1,–
O=C(O)c1[nH]c2cc(Cl)cc(Cl)c2c1/C=C/S(=O)(=O)Nc1ccccc1,794,–
O=c1[nH]c2cc(Cl)c(Cl)c([N+](=O)[O-])c2[nH]c1=O [LICOSTINEL],7.94,ED50 (Mus musculus [2]): 0.21 mg/kg
O=C(/C=C/c1c(C(=O)O)[nH]c2cc(Cl)cc(Cl)c12)Nc1cccc([N+](=O)[O-])c1F,5.01,–
O=C(/C=C/c1c(C(=O)O)[nH]c2cc(Cl)cc(Cl)c12)Nc1ccc(O)cc1,2,–
O=C(/C=C/c1c(C(=O)O)[nH]c2cc(Cl)cc(Cl)c12)Nc1ccc(F)cc1,6.31,–
O=C(/C=C/c1c(C(=O)O)[nH]c2cc(Cl)cc(Cl)c12)Nc1ccc(Cl)c([N+](=O)[O-])c1,126,–
Nc1ccccc1NC(=O)/C=C/c1c(C(=O)O)[nH]c2cc(Cl)cc(Cl)c12,3.16,–
O=C(O)CCc1c(C(=O)[O-])[nH]c2cc(Cl)cc(Cl)c12.[Na+],39.8,ED50 (Mus musculus [2]): > 10 mg/kg

SMILES,Ki [1] [nM],other results
O=C(CCc1c(C(=O)[O-])[nH]c2cc(Cl)cc(Cl)c12)Nc1ccccc1.[Na+],25.1,ED50 (Mus musculus [2]): 3.7 mg/kg
O=C(/C=C/c1c(C(=O)O)[nH]c2cc(Cl)cc(Cl)c12)Nc1ccc(C(F)(F)F)cc1,158,–
O=C(/C=C/c1c(C(=O)O)[nH]c2cc(Cl)cc(Cl)c12)Nc1ccc(Nc2ccccc2)cc1,200,–
O=C(/C=C/c1c(C(=O)[O-])[nH]c2cc(Cl)cc(Cl)c12)Nc1ccccc1.[Na+] [GAVESTINEL SODIUM],3.16,ED50 (Mus musculus [3]): 6 mg/kg; pA2 [4]: 8.1; ED50 (Mus musculus [2]): 0.06 mg/kg
O=C(/C=C/c1c(C(=O)[O-])[nH]c2cc(Cl)cc(Cl)c12)NCc1ccccc1.[Na+],126,ED50 (Mus musculus [3]): > 200 mg/kg; ED50 (Mus musculus [2]): > 30 mg/kg
O=C(/C=C/c1c(C(=O)O)[nH]c2cc(Cl)cc(Cl)c12)Nc1ccc([N+](=O)[O-])cc1,100,–
Nc1ccc(NC(=O)/C=C/c2c(C(=O)O)[nH]c3cc(Cl)cc(Cl)c23)cc1,1.26,–
O=c1[nH]c2cc(Cl)ccc2c(O)c1-c1cccc(Oc2ccccc2)c1,1,ED50 (Mus musculus [2]): 0.78 mg/kg
Nc1cccc(NC(=O)/C=C/c2c(C(=O)O)[nH]c3cc(Cl)cc(Cl)c23)c1,5.01,–
O=C(/C=C/c1c(C(=O)O)[nH]c2cc(Cl)cc(Cl)c12)Nc1cccc([N+](=O)[O-])c1O,10,–
CN(C)c1ccc(NC(=O)/C=C/c2c(C(=O)O)[nH]c3cc(Cl)cc(Cl)c23)cc1,12.6,–
O=C(O)/C=C/c1c(C(=O)[O-])[nH]c2cc(Cl)cc(Cl)c12.[Na+],20,ED50 (Mus musculus [3]): > 200 mg/kg; ED50 (Mus musculus [2]): 17.2 mg/kg
NC(=O)Nc1ccc(NC(=O)/C=C/c2c(C(=O)O)[nH]c3cc(Cl)cc(Cl)c23)cc1,1.58,–
O=C(/C=C/c1c(C(=O)O)[nH]c2cc(Cl)cc(Cl)c12)Nc1ccc(C(=O)O)cc1,63.1,–
CC(C)(C)OC(=O)/C=C/c1c(C(=O)O)[nH]c2cc(Cl)cc(Cl)c12,501,–
